Literature values, collected in US20130116279A1, “BICYCLIC HETEROARYL INHIBITORS OF PDE4” (KALYPSYS, INC., priority 2011, published 2013).
pIC50: −log10 of the molar value.

Tested on: recombinant human PDE4
Settings: inhibiting recombinant human PDE4, reported

For `COc1ccc(C2CNC(=O)C2)cc1OC1CCCC1` (stereo not shown) [rolipram], the pIC50 is listed as about 6.70.
